Read-outs that look alike come from different tables or passages of the source.
How the values were obtained:
[1] = system: 60 different human tumor cell lines; conditions: for CC50: read-out: LC50
[2] = system: gliosarcoma (SF-539); test: NCI 60 five dose screen
[3] = system: RPMI-8226; test: NCI 60 five dose screen
[4] = system: SR; test: NCI 60 five dose screen
[5] = SK-MEL-28 (Melanoma), five dose
[6] = SK-OV-3 (Ovarian Cancer), five dose
[7] = SN12C (Renal Cancer), five dose
[8] = SW-620 (Colon Cancer), five dose
[9] = T-47D (Breast Cancer), five dose
[10] = TK-10 (Renal Cancer), five dose
[11] = UO-31 (Renal Cancer), five dose
[12] = RPMI-8226 (Leukemia), five dose

“(1S,2R,13R,14S,18S)-7-(3-fluoroanilino)-2,18-dimethyl-6-thia-8-azapentacyclo[11.7.0.02,10.05,9.014,18]icosa-5(9),7,10-trien-17-one [IIa.8]” was tested, and the TGI ([1]; SK-MEL-2 (Melanoma), five dose) was 5.19E−5, the GI50 ([1]; SK-MEL-5 (Melanoma), five dose) was 2.02 µM and the TGI ([1]; SK-MEL-5 (Melanoma), five dose) was 4.32E−6. It also gave a GI50 [1, 5] of 1.52 µM, a TGI [1, 5] of 4.27E−6 and a GI50 [1, 6] of 2.33 µM. The TGI [1, 6] was 6.10E−6, the GI50 [1, 7] was 2.36 µM and the TGI [1, 7] was 6.02E−6. It also gave a GI50 ([1]; SNB-19 (CNS Cancer), five dose) of 2.33 µM, a TGI ([1]; SNB-19 (CNS Cancer), five dose) of 5.69E−6 and a GI50 ([1]; SNB-75 (CNS Cancer), five dose) of 1.52 µM. The TGI ([1]; SNB-75 (CNS Cancer), five dose) was 4.94E−6, the GI50 [1, 8] was 2.33 µM and the TGI [1, 8] was 4.99E−6. For the same substance, the GI50 [1, 9] was 2.22 µM, the TGI [1, 9] was 6.95E−6 and the GI50 [1, 10] was 1.97 µM. The TGI [1, 10] was 4.15E−6, the GI50 ([1]; U251 (CNS Cancer), five dose) was 1.59 µM and the TGI ([1]; U251 (CNS Cancer), five dose) was 3.68E−6. It also gave a GI50 ([1]; UACC-62 (Melanoma), five dose) of 1.54 µM, a TGI ([1]; UACC-62 (Melanoma), five dose) of 3.12E−6 and a GI50 ([1]; UACC-257 (Melanoma), five dose) of 5.47 µM. The TGI ([1]; UACC-257 (Melanoma), five dose) was 6.45E−5, the GI50 [1, 11] was 1.67 µM and the TGI [1, 11] was 3.59E−6. For the same substance, the GI50 ([1]; four of six central nervous system (CNS) cell lines) was < 2 µM, the CC50 ([1]; 786-0 (Renal Cancer), five dose) was 5.61 µM and the CC50 ([1]; A498 (Renal Cancer), five dose) was > 100 µM. For the same substance, the CC50 ([1]; A549/ATCC (Non-small Cell Lung Cancer), five dose) was > 100 µM, the CC50 ([1]; ACHN (Renal Cancer), five dose) was 5.92 µM and the CC50 ([1]; BT-549 (Breast Cancer), five dose) was 8.49 µM. For the same substance, the CC50 ([1]; CAKI-1 (Renal Cancer), five dose) was 38.1 µM, the CC50 ([1]; CCRF-CEM (Leukemia), five dose) was > 100 µM and the CC50 ([1]; COLO 205 (Colon Cancer), five dose) was 24.4 µM. For the same substance, the CC50 ([1]; DU-145 (Prostate Cancer), five dose) was 27.4 µM, the CC50 ([1]; EKVX (Non-small Cell Lung Cancer), five dose) was > 100 µM and the CC50 ([1]; HCC-2998 (Colon Cancer), five dose) was 88 µM. The CC50 ([1]; HCT-15 (Colon Cancer), five dose) was 14.7 µM, the CC50 ([1]; HCT-116 (Colon Cancer), five dose) was 6.58 µM and the CC50 ([1]; HL-60(TB) (Leukemia), five dose) was > 100 µM. For the same substance, the CC50 ([1]; HOP-62 (Non-small Cell Lung Cancer), five dose) was 24.5 µM, the CC50 ([1]; HOP-92 (Non-small Cell Lung Cancer), five dose) was 7.73 µM and the CC50 ([1]; HT29 (Colon Cancer), five dose) was 8.28 µM. The CC50 ([1]; IGROV1 (Ovarian Cancer), five dose) was 7.76 µM, the CC50 ([1]; K-562 (Leukemia), five dose) was > 100 µM and the CC50 ([1]; KM12 (Colon Cancer), five dose) was 79.2 µM. The CC50 ([1]; LOX IMVI (Melanoma), five dose) was 6.16 µM, the CC50 ([1]; M14 (Melanoma), five dose) was 81.4 µM and the CC50 ([1]; MALME-3M (Melanoma), five dose) was 26.7 µM. The CC50 ([1]; MCF7 (Breast Cancer), five dose) was 7.87 µM, the CC50 ([1]; MDA-MB-231/ATCC (Breast Cancer), five dose) was 9.99 µM and the CC50 ([1]; MDA-MB-435 (Melanoma), five dose) was > 100 µM. The CC50 ([1]; MOLT-4 (Leukemia), five dose) was > 100 µM, the CC50 ([1]; NCI-H23 (Non-small Cell Lung Cancer), five dose) was 77.7 µM and the CC50 ([1]; NCI-H226 (Non-small Cell Lung Cancer), five dose) was 81.5 µM. For the same substance, the CC50 ([1]; NCI-H460 (Non-small Cell Lung Cancer), five dose) was > 100 µM, the CC50 ([1]; NCI-H522 (Non-small Cell Lung Cancer), five dose) was 5.75 µM and the CC50 ([1]; NCI/ADR-RES (Ovarian Cancer), five dose) was > 100 µM. For the same substance, the CC50 ([1]; OVCAR-3 (Ovarian Cancer), five dose) was 6.34 µM, the CC50 ([1]; OVCAR-4 (Ovarian Cancer), five dose) was > 100 µM and the CC50 ([1]; OVCAR-5 (Ovarian Cancer), five dose) was > 100 µM. It also gave a CC50 ([1]; OVCAR-8 (Ovarian Cancer), five dose) of 68.7 µM, a CC50 ([1]; PC-3 (Prostate Cancer), five dose) of 7.94 µM and a CC50 ([1]; RXF 393 (Renal Cancer), five dose) of 7.31 µM. For the same substance, the CC50 ([1]; SF-268 (CNS Cancer), five dose) was > 100 µM, the CC50 ([1]; SK-MEL-2 (Melanoma), five dose) was 26.7 µM and the CC50 ([1]; SK-MEL-5 (Melanoma), five dose) was 9.24 µM. The CC50 [1, 6] was > 100 µM, the CC50 [1, 7] was 36 µM and the CC50 ([1]; SNB-19 (CNS Cancer), five dose) was 22.7 µM. For the same substance, the CC50 ([1]; SNB-75 (CNS Cancer), five dose) was > 100 µM, the CC50 [1, 8] was > 100 µM and the CC50 [1, 9] was > 100 µM. For the same substance, the CC50 [1, 10] was 8.72 µM, the CC50 ([1]; U251 (CNS Cancer), five dose) was 8.51 µM and the CC50 ([1]; UACC-62 (Melanoma), five dose) was 6.31 µM. For the same substance, the CC50 ([1]; UACC-257 (Melanoma), five dose) was > 100 µM, the CC50 [1, 11] was 7.69 µM and the GI50 ([2]; SF-539 (CNS Cancer), five dose) was 1.34 µM. The TGI ([2]; SF-539 (CNS Cancer), five dose) was 2.94E−6, the GI50 ([2]; gliosarcoma SF-539) was 1.34 µM and the CC50 ([2]; read-out: LC50, SF-539 (CNS Cancer), five dose) was 6.45 µM. For the same substance, the GI50 [3, 12] was 0.859 µM, the TGI [3, 12] was 3.90E−6 and the “50% growth inhibition (GI50)” value ([3]; leukemia cell line RPMI-8226) was “submicromolar”. For the same substance, the CC50 ([3]; read-out: LC50, RPMI-8226 (Leukemia), five dose) was > 100 µM, the GI50 ([4]; SR (Leukemia), five dose) was 0.859 µM and the “50% growth inhibition (GI50)” value ([4]; leukemia cell line SR) was “submicromolar”. The CC50 ([4]; read-out: LC50, SR (Leukemia), five dose) was > 100 µM.

— patent publication US20250296953A1, “3,4-THIAZOLO-STEROIDS AND METHODS OF MAKING AND USING THE SAME” (Arkansas State University - Jonesboro, priority 2018, published 2025)
